Source: article PMC10060354, “Discovery of a small molecule ligand of FRS2 that inhibits invasion and tumor growth” (Cellular Oncology, 2022)
In brackets after ≈: the same amount, converted by molar mass. Like-named read-outs stand apart in the source and are kept apart here. Each block holds one compound with its values, some of them ahead of it.

Key:
[1] = Semi-thermodynamic solubility; assay type: physicochemical; settings: for solubility: Room Temp, Overnight, LC-MSMS; for solubility thermodynamic: overnight; for solubility thermodynamic / Solubility (class in words): summary sheet
Procedure: In vitro ADME-T assays were performed by Cyprotex (Cyprotex Discovery, Cheshire, UK). […] The solution was agitated at ambient temperature overnight. The solutions were then centrifuged for 30 min at 3000 rpm at RT. The supernatant was removed and centrifuged for a further 30 min under the same conditions. An aliquot of the resulting supernatant was diluted in 50% methanol in water (containing an internal standard for MS analysis) prior to analysis by LC–MS/MS. […] These stocks were diluted in 50% methanol in water (containing an internal standard for MS analysis) prior to analysis by LC–MS/MS. The solubility of the shortlisted hits was calculated from a linear or quadratic fit of the standard curve.

DAOY cells = assay: Spheroid invasion assay (SIA), bFGF-induced collagen I invasion; assay type: cell-based, human; settings: for functional activity in SIA (result in words): DAOY, bFGF-induced, 1, 5 and 10 µM
Procedure: 1000—2500 cells/well in 100 μl were seeded in 96 well Corning® Spheroid microplate (CLS4520, Sigma-Aldrich) or in cell-repellent 96 well microplate (650,790, Greiner Bio-one). SIA and analysis was performed as described before. In brief: After spheroid formation (24 – 72 h after seeding), 70 µl medium was removed and replaced with the collagen mixture (2.5 mg/ml Pure Col Collagen I (Advanced Biomatrix)), DMEM 1x (from 10 × stock, Sigma, D2429) and 0.4% Sodium bicarbonate (Sigma, S8761)), resulting in a final collagen concentration of 1.75 mg/ml. Embedded spheroids were stimulated with bFGF (100 ng/ml if not otherwise stated), HGF (30 ng /ml) or EGF (20 ng/ml) and distance of invaded cells quantified 24 – 48 h after embedding. Compounds and BGJ398 were added in Dimethylsulfoxid (DMSO) and corresponding DMSO concentrations were used in control samples.

[2] = Microsomal metabolic stability; assay type: in vitro ADME; settings: human, pooled liver microsomes; for half-life at 1 µM: pH 7.4, liver microsomes, read-out: t1/2; for microsomal CLint at 1 µM: pH 7.4, read-out: Metabolic stability - Intrinsic clearance (CI)
Procedure: Pooled liver microsomes were purchased from Xenotech (H0500) and were stored according to manufacturer’s instructions prior to use. […] A minus co-factor control incubation was included for each compound tested where 0.1 M phosphate buffer pH 7.4 was added instead of NADPH. Two control compounds were included with each species. All incubations were performed singularly for each shortlisted hit. Each compound was incubated for 0, 5, 15, 30 and 45 min. The minus co-factor was incubated for 45 min only. The reactions were stopped by transferring incubate into acetonitrile at the appropriate time points in a 1:3 ratio. The termination plates were centrifuged at 3000 rpm for 20 min at 4 °C to precipitate the protein. Following protein precipitation, the supernatant were combined in cassette of up to 4 compounds, internal standard for MS analysis was added and samples were analyzed using LC–MS/MS. From a plot of In peak area ratio (compound peak area/internal standard peak area) against time, the gradient of the lines were determined. Subsequently, half-life and intrinsic clearance were calculated using the following equations. Eliminationrateconstant(k)=(-gradient)Half-life(t1/2)(min)=0.693/kIntrinsicclearance(CLint)(μl/min/mgprotein)=Vx0.693/t1/2 where V = Incubation volume (µl) / Microsomal protein (mg)

[3] = CaCo-2 permeability (bi-directional); settings: human
Procedure: Caco-2 cells obtained from the ATCC were used between passage numbers 40—60. Cells were seeded onto Millipore Multiscreen Transwell plates at 1 × 10^5 cells/cm^2. The cells were cultured in DMEM and media was changed every two or three days. On day 20, the permeability study was performed. […] Cells were then incubated with HBSS at the desired pH in both apical and basolateral compartments for 40 min to stabilize physiological parameters.
The fluorescent integrity marker lucifer yellow was also included in the dosing solution. Analytical standards were prepared from test compound DMSO dilutions and transferred to buffer, maintaining a 1% v/v DMSO concentration.
For assessment of A-B permeability, HBSS was removed from the apical compartment and replaced with test compound dosing solution. The apical compartment insert was then placed into a companion plate containing fresh buffer (containing 1% v/v DMSO). For assessment of B-A permeability, HBSS was removed from the companion plate and replaced with test compound dosing solution. Fresh buffer (containing 1% v/v DMSO) was added to the apical compartment insert, which was then placed into the companion plate.
Compound permeability was assessed in duplicate. Compounds of known permeability characteristics were run as controls on each assay plate.
Test and control compounds were quantified by LC–MS/MS cassette analysis using a 7-point calibration with appropriate dilution of the samples. The starting concentration (C0) was determined from the dosing solution and the experimental recovery calculated from C0 and both apical and basolateral compartment concentrations. The integrity of the monolayer throughout the experiment was checked by monitoring lucifer yellow permeation using fluorimetric analysis.
The permeability coefficient (Papp) for each compound was calculated from the following equation: Papp=dQ/dtC0×A where dQ/dt was the rate of permeation of the drug across the cells, C0 was the donor compartment concentration at time zero and A was the area of the cell monolayer. C0 was obtained from analysis of the dosing solution.
Efflux ratio (ER) was calculated from mean A-B and B-A data. This was derived from: ER=Papp(B-A)Papp(A-B)

[4] = Cell viability (cytotoxicity, MTT) using HepG2; assay type: cell-based, human; settings: human, HepG2 cells
Procedure: (§1) HepG2 human hepatocellular carcinoma cells were plated on 96-well tissue culture polystyrene plates for 24 h prior to dosing of the cells. The shortlisted hits were diluted in DMSO and serial dilutions are made 1% DMSO in growth media. Compounds at 8 concentrations in triplicate was then incubated for 72 h. Appropriate blanks and controls were run alongside the assay. One h prior to the end of the incubation period, the cells were loaded with MTT [yellow; 3-(4,5-dimethyl-2-thiazolyl)-2,5-diphenyl-2H-tetrazolium bromide], the plates were dried and re-solubilized using DMSO. The plates were then scanned at 570 nm using a plate reader.
(§2) The minimum effective concentration was determined from the lowest concentration whose mean value exceeds the significance level, provided either a clear dose–response relationship was observed, or at least two consecutive concentration points were above the significance level.

[5] = test system: HepG2 human hepatocellular carcinoma cells; assay: Cell viability (cytotoxicity, MTT) using HepG2; assay type: cell-based; settings: for MEC: 72h, 3 replicas, NR = No response (Summary sheet); for MTT (MEC) Minimum effective concentration: 72 h, summary sheet
Procedure: as §1, §2

[6] = PBS, aqueous buffer, thermodynamic from solid, read-out: Mean Solubility
[7] = PBS, aqueous buffer, thermodynamic from solid, read-out: Solubility Replicate 1
[8] = PBS, aqueous buffer, thermodynamic from solid, read-out: Solubility Replicate 2
[9] = PBS, aqueous buffer, thermodynamic from solid, read-out: Solubility Replicate 3
[10] = PBS, aqueous buffer, thermodynamic from solid, read-out: Solubility Replicate 4
[11] = aqueous buffer, thermodynamic from solid, PBS
[12] = Caco-2, Mean Papp A-B, Caco-2, summary sheet
[13] = Caco-2, Mean Papp B-A, Caco-2, summary sheet
[14] = Caco-2, pH 7.4, Mean % Recovery A2B, HBSS/HBSS, pH 7.4/7.4
[15] = Caco-2, pH 7.4, Mean % Recovery B2A, HBSS/HBSS, pH 7.4/7.4
[16] = Caco-2, pH 7.4, Mean Papp A2B, HBSS/HBSS, pH 7.4/7.4
[17] = Caco-2, pH 7.4, Mean Papp B2A, HBSS/HBSS, pH 7.4/7.4
[18] = Caco-2, pH 7.4, Papp A2B Replicate 1, HBSS/HBSS, pH 7.4/7.4
[19] = Caco-2, pH 7.4, Papp B2A Replicate 1, HBSS/HBSS, pH 7.4/7.4
[20] = Caco-2, pH 7.4, Papp B2A Replicate 2, HBSS/HBSS, pH 7.4/7.4
[21] = 72 h, summary sheet, read-out: MTT (AC50) Conc at which 50% of maximum efficacy is reached
[22] = 72h, 3 replicas, NR = No response (Summary sheet), read-out: AC50

SMILES: CC1(C)Cc2cccc(OCC(=O)Nc3nc4ccccc4s3)c2O1 [Compound E25]
functional activity in SIA (result in words) (DAOY cells): comparable inhibition of invasion
EC50 (DAOY cells; Homo sapiens, Daoy, DAOY cells, n = 3 technical replicas, read-out: EC50 for the inhibition of bFGF-induced collagen I invasion): 7.51 µM
solubility [1, 6]: 1.25 µM (≈ 0.443 µg/mL)
solubility [1, 7]: 1.26 µM (≈ 0.447 µg/mL)
solubility [1, 8]: 1.12 µM (≈ 0.397 µg/mL)
solubility [1, 9]: 1.21 µM (≈ 0.429 µg/mL)
solubility [1, 10]: 1.4 µM (≈ 0.496 µg/mL)
solubility thermodynamic [1, 11]: 1.25 µM (≈ 0.443 µg/mL)
Solubility (class in words) [1]: Sligthly
half-life at 1 µM [2]: 0.552 min
microsomal CLint at 1 µM [2]: 2510 µL/min/mg
efflux ratio at 120 min, 10 μM ([3]; Caco-2): 4
Papp A→B at 120 min, 10 μM [3, 12]: 1.11 ×10⁻⁶ cm/s
Papp B→A at 120 min, 10 μM [3, 13]: 4.46 ×10⁻⁶ cm/s
efflux ratio at 120 min, 10 μM ([3]; Caco-2, pH 7.4): 4
recovery at 120 min, 10 µM [3, 14]: 6.59%
recovery at 120 min, 10 µM [3, 15]: 50.6%
Papp A→B at 120 min, 10 μM [3, 16]: 1.11 ×10⁻⁶ cm/s
Papp B→A at 120 min, 10 μM [3, 17]: 4.46 ×10⁻⁶ cm/s
Papp A→B at 120 min, 10 μM [3, 18]: 1.12 ×10⁻⁶ cm/s
Papp A→B at 120 min, 10 μM ([3]; Caco-2, pH 7.4, Papp A2B Replicate 2, HBSS/HBSS, pH 7.4/7.4): 1.11 ×10⁻⁶ cm/s
Papp B→A at 120 min, 10 μM [3, 19]: 5.88 ×10⁻⁶ cm/s
Papp B→A at 120 min, 10 μM [3, 20]: 3.04 ×10⁻⁶ cm/s
AC50 at 72 h [4, 21]: 58.7 µM
MEC [5]: 42.6 µM
MTT (MEC) Minimum effective concentration [5]: 42.6 µM

SMILES: N#CC(C#N)=NNc1cccc(Cl)c1 [carbonyl cyanide 3-chlorophenylhydrazone, reference compound]
AC50 at 72 h [4, 22]: 6.66 µM
MEC [5]: 4.22 µM

SMILES: CN(C)CCCN1c2ccccc2Sc2ccc(Cl)cc21 [Chlorpromazine, reference compound]
AC50 at 72 h [4, 22]: 12.9 µM
MEC [5]: 10.7 µM

Second part, led by results:

solubility [1, 6]: 29.8 µM (≈ 14.3 µg/mL)
solubility [1, 7]: 34.3 µM (≈ 16.4 µg/mL)
solubility [1, 8]: 24.2 µM (≈ 11.6 µg/mL)
solubility [1, 9]: 29.6 µM (≈ 14.2 µg/mL)
solubility [1, 10]: 31.2 µM (≈ 15 µg/mL)
SMILES: COC(=O)C1=C(C)NC(C)=C(C(=O)OCCN(C)Cc2ccccc2)C1c1cccc([N+](=O)[O-])c1 (stereo not drawn) [nicardipine, reference compound]

solubility [1, 6]: 2.18 µM (≈ 0.649 µg/mL)
solubility [1, 7]: 1.95 µM (≈ 0.581 µg/mL)
solubility [1, 9]: 2.79 µM (≈ 0.831 µg/mL)
solubility [1, 10]: 1.79 µM (≈ 0.533 µg/mL)
solubility thermodynamic [1, 11]: 2.18 µM (≈ 0.649 µg/mL)
Solubility (class in words) [1]: Sligthly
half-life at 1 µM [2]: 2.83 min
microsomal CLint at 1 µM [2]: 490 µL/min/mg
efflux ratio at 120 min, 10 μM ([3]; Caco-2): 36.9
Papp A→B at 120 min, 10 μM [3, 12]: 0.3 ×10⁻⁶ cm/s
Papp B→A at 120 min, 10 μM [3, 13]: 11.1 ×10⁻⁶ cm/s
efflux ratio at 120 min, 10 μM ([3]; Caco-2, pH 7.4): 36.9
recovery at 120 min, 10 µM [3, 14]: 30%
recovery at 120 min, 10 µM [3, 15]: 8.82%
Papp A→B at 120 min, 10 μM [3, 16]: 0.3 ×10⁻⁶ cm/s
Papp B→A at 120 min, 10 μM [3, 17]: 11.1 ×10⁻⁶ cm/s
Papp A→B at 120 min, 10 μM [3, 18]: 0.3 ×10⁻⁶ cm/s
Papp B→A at 120 min, 10 μM [3, 19]: 11.5 ×10⁻⁶ cm/s
Papp B→A at 120 min, 10 μM [3, 20]: 10.6 ×10⁻⁶ cm/s
SMILES: Oc1cc(Cl)cc2c1NC(c1ccccc1)C1CC=CC21 (stereo not drawn) [Compound 11]
functional activity in SIA (result in words) (DAOY cells): reduced effect compared to its parent compound 3.18 at all concentrations
AC50 at 72 h [4, 21]: 19.6 µM
MEC [5]: 14.2 µM
MTT (MEC) Minimum effective concentration [5]: 14.2 µM

solubility [1, 7]: > 100 µM
solubility ([1]; read-out: Mean Solubility): >100 µM
solubility ([1]; read-out: Solubility Replicate 2): >100 µM
solubility ([1]; read-out: Solubility Replicate 3): >100 µM
solubility ([1]; read-out: Solubility Replicate 4): >100 µM
SMILES: CC(=O)CC(c1ccccc1)c1c(O)c2ccccc2oc1=O (stereo not drawn) [warfarin, reference compound]
